Test results published in US10208033B2, “β-carboline, dihydro-β-carboline and tetrahydro-β-carboline alkaloid derivatives and preparation methods same and use in aspects of preventing and treating plant viruses, fungicides and insecticides” (NANKAI UNIVERSITY, priority 2013, dated 2019).
Counter-ions that a name gives are not always drawn. Like-named read-outs stand apart in the source and are kept apart here.

What was measured:
[1] = test system: tobacco mosaic virus (TMV); test: Anti-TMV in vitro effect (half-leaf soaking); type: cell-based, tobacco mosaic virus (host Nicotiana tabacum L.cv.Xanthi NN)
[2] = test system: tobacco mosaic virus (TMV); test: Anti-TMV in vivo inactivation; parameters: species or system tobacco mosaic virus (host Nicotiana tabacum L.cv.Xanthi NN)
[3] = test system: tobacco mosaic virus (TMV); test: Anti-TMV in vivo therapeutic effect; parameters: species or system tobacco mosaic virus (host Nicotiana tabacum L.cv.Xanthi NN)
[4] = test system: tobacco mosaic virus (TMV); test: Anti-TMV in vivo protective effect; parameters: species or system tobacco mosaic virus (host Nicotiana tabacum L.cv.Xanthi NN)
cucumber fusarium wilt = test: Fungicidal (bactericidal) activity in vitro, PDA colony diameter; type: cell-based; settings: 50 mg/kg
Cercospora arachidicola = test: as above; type: cell-based; settings: 50 mg/kg
Macrophoma kawatsukai = test: as above; type: cell-based; settings: 50 mg/kg
Alternaria solani = test: as above; type: cell-based; settings: 50 mg/kg
Fusarium graminearumt = test: microbe, parasite or virus in culture; type: cell-based; settings: 50 mg/kg
potato late blight = test: microbe, parasite or virus in culture; type: cell-based
Sclerotinia scleotiorum = test: Fungicidal (bactericidal) activity in vitro, PDA colony diameter; type: cell-based; settings: 50 mg/kg
Botrytis cinerea = test: as above; type: cell-based; settings: 50 mg/kg
Rhizoctonia solani = test: as above; type: cell-based; settings: 50 mg/kg
Phytophthora capsici = test: as above; type: cell-based; settings: 50 mg/kg
Fusarium fujikuroi = test: as above; type: cell-based; settings: 50 mg/kg
Rhizoctonia cereali = test: as above; type: cell-based; settings: 50 mg/kg
Bipolaria maydis = test: organism not typed; type: cell-based; settings: 50 mg/kg
[5] = test system: Colletotrichum orbiculare; test: Fungicidal (bactericidal) activity in vitro, PDA colony diameter; type: cell-based; settings: 50 mg/kg
armyworms = type: in vivo; settings: concentration 600 mg/kg
cotton bollworms = test: whole plant or invertebrate; settings: concentration 600 mg/kg
Method: Experimental method of cotton bollworms: feed and drug mixing method: measure 3 mL of prepared solution and add it to about 27 g of newly prepared feed, thereby obtaining needed concentration through dilution by 10 times.

mosquito larvae = test: whole plant or invertebrate; settings: 24 h
Method: Experimental method of mosquito larvae: culex pipiens pallens, a normal colony raised indoors. Weigh about 5 mg of the compound for test, put it in a penicillin vial, add 5 mL of acetone (or an appropriate solvent), and shake and dissolve it to obtain a 1000 ppm mother solution. Pipette 0.5 mL of the mother solution, add it to a 100 mL beaker filled with 89.9 mL of water, select 10 mosquito larvae at the beginning of the fourth instar, and pour them to a beaker together with 10 mL of feeding solution. The concentration of the drug solution is 5 ppm. […] Use an aqueous solution containing 0.5 mL of test solvent as a blank.

corn borers = settings: concentration 600 mg/kg

SMILES | Relative inhibition rate (%) In vitro activity ([1]; treatment dose 100 μg/mL) [%] | Relative inhibition rate (%) In vitro activity ([1]; treatment dose 500 μg/mL) [%] | Relative inhibition rate (%) In vivo inactivation ([2]; treatment dose 100 μg/mL) [%] | Relative inhibition rate (%) In vivo inactivation ([2]; treatment dose 500 μg/mL) [%] | Relative inhibition rate (%) In vivo therapy ([3]; treatment dose 100 μg/mL) [%] | Relative inhibition rate (%) In vivo therapy ([3]; treatment dose 500 μg/mL) [%] | Relative inhibition rate (%) In vivo protection ([4]; treatment dose 100 μg/mL) [%] | Relative inhibition rate (%) In vivo protection ([4]; treatment dose 500 μg/mL) [%] | Bactericidal activity (%) Cucumber fusarium wilt (cucumber fusarium wilt) [%] | Bactericidal activity (%) Cercospora arachidicola (Cercospora arachidicola) [%] | Bactericidal activity (%) Macrophoma kawatsukai (Macrophoma kawatsukai) [%] | Bactericidal activity (%) Alternaria solani (Alternaria solani) [%] | Bactericidal activity (%) Fusarium graminearumt (Fusarium graminearumt) [%] | Bactericidal activity (%) Sclerotinia scleotiorum (Sclerotinia scleotiorum) [%] | Bactericidal activity (%) Botrytis cinerea (Botrytis cinerea) [%] | Bactericidal activity (%) Rhizoctonia solani (Rhizoctonia solani) [%] | Bactericidal activity (%) Phytophthora capsici (Phytophthora capsici) [%] | Bactericidal activity (%) Fusarium fujikuroi (Fusarium fujikuroi) [%] | Bactericidal activity (%) Rhizoctonia cereali (Rhizoctonia cereali) [%] | Bactericidal activity (%) Bipolaria maydis (Bipolaria maydis) [%] | further results
CCOC(=O)[C@@H]1Cc2c([nH]c3ccccc23)[C@H](CC)N1 [Ib-10, (1S, 3S)-1-ethyl-2,3,4,9-tetrahydropyridino [3,4-b] indol-3-ethyl formate] | 0 | 34.1 | 12.6 | 46.4 | 11.4 | 38.1 | 10.7 | 36.6 | 23.8 | 21.4 | 64.7 | 55.6 | 35.7 | 56.0 | 40.9 | 21.4 | 45.5 | 35.7 | 65.6 | 31.6 | Bactericidal activity (%) potato late blight (potato late blight): 30.0%; Bactericidal activity (%) Colletotrichum orbiculare [5]: 42.9%; Armyworm Mortality (%) (armyworms): 30%; Cotton bollworm Mortality (%) (cotton bollworms): 15%; Mosquito larvae Mortality (%) (mosquito larvae; concentration 10 mg/kg): 60%; Corn borer Mortality (%) (corn borers): 25%
CCOC(=O)[C@H]1Cc2c([nH]c3ccccc23)[C@@H](C)N1 [Ib-12, (1R,3R)-1-methyl-2,3,4,9-tetrahydropyridino [3,4-b] indol-3-ethyl formate] | 12.6 | 40 | 16.7 | 35.8 | 12.9 | 38.6 | 17 | 41.9 | 19.2 | 92.3 | 54.8 | 26.3 | 26.2 | 17.7 | 24.2 | 42.1 | 9.4 | 28.6 | 39.5 | 18.2 | Bactericidal activity (%) potato late blight (potato late blight): 18.2%; Bactericidal activity (%) Colletotrichum orbiculare [5]: 25.0%; Armyworm Mortality (%) (armyworms): 50%; Cotton bollworm Mortality (%) (cotton bollworms): 30%; Mosquito larvae Mortality (%) (mosquito larvae; concentration 5 mg/kg): 40%; Mosquito larvae Mortality (%) (mosquito larvae; concentration 10 mg/kg): 100%; Corn borer Mortality (%) (corn borers): 50%
CCOC(=O)C1Cc2c([nH]c3ccccc23)C(C)=N1 (stereo not shown) [Ib-14, 1-methyl-4,9-dihydro-pyridino [3,4-b] indol-3-ethyl formate] | 11.1 | 42.6 | 0 | 35.7 | 15.9 | 45.8 | 21.4 | 47 | 23.1 | 69.2 | 33.3 | 42.1 | 42.9 | 29.4 | 36.4 | 59.2 | 15.6 | 28.6 | 65.8 | 36.4 | Bactericidal activity (%) potato late blight (potato late blight; 50 mg/kg): 36.4%; Bactericidal activity (%) Colletotrichum orbiculare [5]: 42.9%; Armyworm Mortality (%) (armyworms): 10%; Cotton bollworm Mortality (%) (cotton bollworms): 30%; Mosquito larvae Mortality (%) (mosquito larvae; concentration 10 mg/kg): 30%; Corn borer Mortality (%) (corn borers): 10%
